Experimental data as given in patent US20250144067A1, “PERSONALIZED STARVATION THERAPY FOR CANCER” (Faeth Therapeutics, Inc., priority 2021, published 2025).
Where a name gives a salt, the structure may show the parent alone.

What was measured:
[1] = test system: NCI-H292 lung cancer cells; assay: FDA drug screening, complete media vs cholesterol-free media without statin (TABLE 1); assay type: cell-based, human
[2] = test system: NCI-H292 lung cancer cells; assay: FDA drug screening, complete media vs cholesterol-free media with simvastatin (TABLE 2); assay type: cell-based, human; conditions: for Cholesterol-free media + simvastatin (0.04 μM) / Complete Media: NCI-H292 cells
[3] = Complete minus Cholesterol-free, >0 enhanced anti-cancer activity, about 0 neutral, <0 antagonist
[4] = NCI-H292 cells, cholesterol-free media without statin
[5] = FDA drug library screen, cholesterol-free media with simvastatin 0.04 μM
[6] = FDA drug library screen, complete media
[7] = complete media minus cholesterol-free media + simvastatin, >0 enhanced anti-cancer activity, about 0 neutral, <0 antagonist
[8] = NCI-H292 cells, cholesterol-free media without statin, FDA drug library screen
[9] = NCI-H292 cells, complete media, FDA drug library screen
[10] = drug in cholesterol-free media with simvastatin 0.04 μM
[11] = complete media vs cholesterol-free media + simvastatin (0.04 μM), >0 enhanced anti-cancer activity, about 0 neutral, <0 antagonist
[12] = Complete minus Cholesterol-free, greater than 0 enhanced anti-cancer activity, about 0 neutral, below 0 antagonist
[13] = NCI-H292 cells, FDA drug library screen, cholesterol-free media without statin
[14] = NCI-H292 cells, FDA drug library screen, complete media
[15] = cholesterol-free media with simvastatin 0.04 μM, FDA drug library screen (TABLE 2)
[16] = complete media, FDA drug library screen (TABLE 2)
[17] = FDA library drug in cholesterol-free media with simvastatin 0.04 μM
[18] = FDA library drug in complete media
[19] = complete vs cholesterol-free media, greater than 0 enhanced anti-cancer activity, about 0 neutral, below 0 antagonists
[20] = complete vs cholesterol-free media, >0 enhanced anti-cancer activity, about 0 neutral, <0 antagonist

Gemifloxacin (mesylate)
Difference [1, 3]: −0.22
Cholesterol-free [1, 4]: 1.118
Complete ([1]; NCI-H292 cells, complete media): 0.9009
Cholesterol-free media + simvastatin (0.04 μM) [2, 5]: 0.9496
Complete Media [2, 6]: 1.098
Difference [2, 7]: 0.15

CN(C)c1nc(N(C)C)nc(N(C)C)n1 [Altretamine]
Difference [1, 3]: −0.04
Cholesterol-free [1, 8]: 0.9853
Complete [1, 9]: 0.9434
Cholesterol-free media + simvastatin (0.04 μM) [2, 10]: 1.135
Complete Media ([2]; drug in complete media): 0.9636
Difference [2, 11]: −0.17

NCCCNCCSP(=O)(O)O [Amifostine]
Difference [1, 12]: −0.17
Cholesterol-free [1, 13]: 1.387
Complete [1, 14]: 1.213
Cholesterol-free media + simvastatin (0.04 μM) [2, 15]: 0.9829
Complete Media [2, 16]: 0.9429
Difference ([2]; complete media minus cholesterol-free media + simvastatin (0.04 μM), >0 enhanced anti-cancer activity, about 0 neutral, <0 antagonist): −0.04

OC[C@@H](O)[C@H](O)[C@@H](O)CO [Xylitol]
Difference [1, 3]: −0.26
Cholesterol-free [1, 4]: 1.384
Complete ([1]; NCI-H292 cells, complete media): 1.123
Cholesterol-free media + simvastatin (0.04 μM) [2, 10]: 1.234
Complete Media ([2]; drug in complete media): 1.073
Difference [2, 11]: −0.16

Salbutamol (hemisulfate)
Difference [1, 12]: −0.13
Cholesterol-free [1, 13]: 1.595
Complete [1, 14]: 1.464
Cholesterol-free media + simvastatin (0.04 μM) [2, 17]: 2.036
Complete Media [2, 18]: 1.453
Difference [2, 11]: −0.58

C/C(=C(\CCOP(=O)(O)O)SC(=O)c1ccccc1)N(C=O)Cc1cnc(C)nc1N [Benfotiamine]
Cholesterol-free [1, 4]: 1.163
Complete ([1]; NCI-H292 cells, complete media): 0.7915
Difference [1, 19]: −0.37
Cholesterol-free media + simvastatin (0.04 μM) [2, 5]: 1.23
Complete Media [2, 6]: 1.076
Difference [2, 11]: −0.15

CCCS(=O)(=O)Nc1ccc(F)c(C(=O)c2c[nH]c3ncc(-c4ccc(Cl)cc4)cc23)c1F [Vemurafenib]
Cholesterol-free [1, 8]: 0.6442
Complete [1, 9]: 1.257
Difference [1, 20]: 0.61
Cholesterol-free media + simvastatin (0.04 μM) [2, 5]: 0.8006
Complete Media [2, 6]: 0.9559
Difference [2, 7]: 0.16

COC1=CC(=O)C[C@@H](C)[C@]12Oc1c(Cl)c(OC)cc(OC)c1C2=O [Griseofulvin]
Difference ([1]; Complete minus Cholesterol-free, greater than 0 enhanced anti-cancer activity, about 0 neutral, below 0 antagonists): −0.63
Cholesterol-free ([1]; NCI-H292 cells in cholesterol-free media without statin): 1.326
Complete ([1]; NCI-H292 cells in complete media): 0.6963
Cholesterol-free media + simvastatin (0.04 μM) [2, 10]: 1.385
Complete Media ([2]; drug in complete media): 1.224
Difference [2, 11]: −0.16

CN1CCc2nc(C(=O)N[C@@H]3C[C@@H](C(=O)N(C)C)CC[C@@H]3NC(=O)C(=O)Nc3ccc(Cl)cn3)sc2C1 [Edoxaban]
Cholesterol-free [1, 8]: 1.603
Complete [1, 9]: 1.759
Difference [1, 20]: 0.16
Cholesterol-free media + simvastatin (0.04 μM) [2, 10]: 1.032
Complete Media ([2]; drug in complete media): 0.8097
Difference [2, 11]: −0.22

Cn1cnc2c(F)c(Nc3ccc(Br)cc3Cl)c(C(=O)NOCCO)cc21 [Selumetinib]
Difference [1, 12]: −0.18
Cholesterol-free [1, 13]: 0.4744
Complete [1, 14]: 0.2899
Cholesterol-free media + simvastatin (0.04 μM) [2, 17]: 0.7343
Complete Media [2, 18]: 0.4618
Difference [2, 11]: −0.27

Merbromin
Cholesterol-free [1, 8]: 1.294
Complete [1, 9]: 1.544
Difference ([1]; complete vs cholesterol-free media, […]): 0.25
Cholesterol-free media + simvastatin (0.04 μM) [2, 15]: 1.023
Complete Media [2, 16]: 1.006
Difference ([2]; complete media minus cholesterol-free media + simvastatin (0.04 μM), […]): −0.02

CC1(C)S[C@@H]2[C@H](NC(=O)[C@H](N)c3ccc(O)cc3)C(=O)N2[C@H]1C(=O)O [Amoxicillin (trihydrate)]
Cholesterol-free [1, 8]: 0.8623
Complete [1, 9]: 0.9771
Difference [1, 20]: 0.11
Cholesterol-free media + simvastatin (0.04 μM) [2, 5]: 0.7666
Complete Media [2, 6]: 1.02
Difference [2, 7]: 0.25

CSCC1CN(/N=C/c2ccc([N+](=O)[O-])o2)C(=O)O1 (centres unmarked) [Nifuratel]
Difference [1, 3]: −0.23
Cholesterol-free [1, 4]: 1.253
Complete ([1]; NCI-H292 cells, complete media): 1.019
Cholesterol-free media + simvastatin (0.04 μM) [2, 17]: 1.397
Complete Media [2, 18]: 1.12
Difference [2, 11]: −0.28

Cc1ccc(Nc2nccc(N(C)c3ccc4c(C)n(C)nc4c3)n2)cc1S(N)(=O)=O [Pazopanib (Hydrochloride)]
Difference [1, 12]: −0.12
Cholesterol-free [1, 13]: 1.089
Complete [1, 14]: 0.9723
Cholesterol-free media + simvastatin (0.04 μM) [2, 5]: 0.5325
Complete Media [2, 6]: 1.206
Difference [2, 7]: 0.67

Bephenium (hydroxynaphthoate)
Complete ([1]; NCI-H292 cells, complete media): 0.7234
Difference [1, 19]: −0.43
Cholesterol-free media + simvastatin (0.04 μM) [2, 10]: 1.634
Complete Media ([2]; drug in complete media): 1.472
Difference [2, 11]: −0.16
